Drawing on patent publication US20200031825A1, “HETEROAROMATIC-FUSED IMIDAZOLYL AMIDES, COMPOSITIONS AND USES THEREOF AS STING AGONISTS” (Trillium Therapeutics Inc., priority 2018, published 2020), this text covers EC50 for 14 compounds.

Where a name gives a salt, the structure may show the parent alone. Read-outs that look alike come from different tables or passages of the source.

Assay type in all cases: cell-based
Test [1] deals with T1, hSTING-Q (Homo sapiens, UniProt Q86WV6, R293Q).
T1 construct: expressed in transfected cells
Briefly: Cellular Functional Assay I: ISRE-SEAP reporter, hSTING-Q allele.

Test [2] deals with hSTING-H232 (Homo sapiens, UniProt Q86WV6). Nature of the test: Cellular Functional Assay I: ISRE-SEAP reporter in HEK-293T-Dual Null cells transfected with hSTING-H232. The settings on record: HEK-293T-Dual Null, hSTING-H232.
Test [3] has as its target hSTING-HAQ (Homo sapiens, UniProt Q86WV6, G230A/H232R/R293Q/R71H). Nature of the test: Cellular Functional Assay I: ISRE-SEAP reporter in HEK-293T-Dual Null cells transfected with hSTING-HAQ. The settings on record: HEK-293T-Dual Null, hSTING-HAQ.
Test [4] addresses T2, hSTING-AQ (Homo sapiens, UniProt Q86WV6, G230A/R293Q).
T2 construct: expressed in transfected cells
Briefly: Cellular Functional Assay I: ISRE-SEAP reporter, hSTING-AQ allele.

The target in test [5] is hSTING-wt (Homo sapiens, UniProt Q86WV6). Nature of the test: Cellular Functional Assay I: ISRE-SEAP reporter in HEK-293T-Dual Null cells transfected with hSTING-wt. The settings on record: HEK-293T-Dual Null, hSTING-wt.
Test [6] concerns the target T3, mSTING-wt (Mus musculus, UniProt Q3TBT3).
T3 sequence (Q3TBT3 1-378): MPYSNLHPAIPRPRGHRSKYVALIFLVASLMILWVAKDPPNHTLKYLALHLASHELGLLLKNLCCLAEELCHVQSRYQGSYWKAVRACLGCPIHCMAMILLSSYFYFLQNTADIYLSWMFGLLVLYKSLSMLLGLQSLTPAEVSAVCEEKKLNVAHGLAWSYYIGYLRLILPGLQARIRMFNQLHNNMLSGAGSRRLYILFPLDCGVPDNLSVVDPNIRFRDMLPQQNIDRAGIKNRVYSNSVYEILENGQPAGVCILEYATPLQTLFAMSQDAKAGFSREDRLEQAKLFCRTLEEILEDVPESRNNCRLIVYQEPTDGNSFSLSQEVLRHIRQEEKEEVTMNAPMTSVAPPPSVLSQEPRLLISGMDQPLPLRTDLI
Briefly: Cellular Functional Assay I: ISRE-SEAP reporter in HEK-293T-Dual Null cells transfected with mouse STING.

Where [7] appears, read: SEAP reporter, HEK-293T-Dual Null, mSTING-wt, read-out: EC50 mSTING-wt.

T1 sequence (Q86WV6 whole entry R293Q): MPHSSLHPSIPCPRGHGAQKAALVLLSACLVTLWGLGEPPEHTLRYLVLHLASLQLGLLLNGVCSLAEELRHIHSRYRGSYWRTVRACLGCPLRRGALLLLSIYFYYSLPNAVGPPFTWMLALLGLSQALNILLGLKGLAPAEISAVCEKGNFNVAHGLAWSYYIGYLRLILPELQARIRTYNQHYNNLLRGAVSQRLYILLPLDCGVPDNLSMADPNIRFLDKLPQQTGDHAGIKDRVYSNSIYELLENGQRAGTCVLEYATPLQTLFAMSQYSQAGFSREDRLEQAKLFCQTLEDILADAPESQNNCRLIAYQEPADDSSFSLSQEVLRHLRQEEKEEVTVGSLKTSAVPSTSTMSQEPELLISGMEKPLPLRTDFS
T2 sequence (Q86WV6 whole entry G230A/H232R/R293Q): as the sequence (Q86WV6 whole entry R293Q) above, with G230A, H232R counted along it
Chain of hSTING-H232 (Q86WV6 whole entry): as the sequence (Q86WV6 whole entry R293Q) above, with Q293R counted along it
Chain of hSTING-wt (Q86WV6 whole entry H232R): as the sequence (Q86WV6 whole entry R293Q) above, with H232R, Q293R counted along it
Chain of hSTING-HAQ (Q86WV6 whole entry R71H/G230A/H232R/R293Q): as the sequence (Q86WV6 whole entry R293Q) above, with R71H, G230A, H232R counted along it

By EC50 is commonly meant the concentration giving half of the maximal effect. Take `CCn1nc(C)cc1C(=O)Nc1nc2cc(C(N)=O)cc(C)c2n1C/C=C/Cn1c(NC(=O)c2cnc(C)s2)nc2cc(C(N)=O)cnc21` [Compound C, N-[6-carbamoyl-3-[(E)-4-[5-carbamoyl-2-[(2-ethyl-5-methyl-pyrazole-3-carbonyl)amino]-7-methyl-benzimidazol-1-yl]but-2-enyl]imidazo[4,5-b]pyridin-2-yl]-2-methyl-thiazole-5-carboxamide Hydrochloride]: the EC50 in test [1] is 1 to 500 nM; in test [2], 1 to 500 nM; in test [3], over 500 nM; in test [4], 1 to 500 nM; in test [5], 1 to 500 nM; in test [6] (setting [7]), over 500 nM.

For `CCn1nc(C)cc1C(=O)Nc1nc2cc(C(N)=O)cnc2n1C/C=C/CNC(=O)OC(C)(C)C` [Compound D, tert-butyl N-[(E)-4-[6-carbamoyl-2-[(2-ethyl-5-methyl-pyrazole-3-carbonyl)amino]imidazo[4,5-b]pyridin-3-yl]but-2-enyl]carbamate], the EC50 in test [1], in test [2], in test [3], in test [4], in test [5] and in test [6] (setting [7]) was over 500 nM each time.

Regarding `CCn1nc(C)cc1C(=O)Nc1nc2cc(C(N)=O)cnc2n1CCCCNC(=O)OC(C)(C)C` [Compound E, tert-butyl N-[4-[6-carbamoyl-2-[(2-ethyl-5-methyl-pyrazole-3-carbonyl)amino]imidazo[4,5-b]pyridin-3-yl]butyl]carbamate], the EC50 in test [1], in test [2], in test [3], in test [4], in test [5] and in test [6] (setting [7]) was over 500 nM each time.

`CCn1nc(C)cc1C(=O)Nc1nc2cc(C(N)=O)cnc2n1C/C=C/CNC(=O)OCc1ccccc1` [Compound F, benzyl N-[(E)-4-[6-carbamoyl-2-[(2-ethyl-5-methyl-pyrazole-3-carbonyl)amino]imidazo[4,5-b]pyridin-3-yl]but-2-enyl]carbamate]: the EC50 in test [1], in test [2], in test [3], in test [4], in test [5] and in test [6] (setting [7]) was over 500 nM in each case.

On to `CCn1nc(C)cc1C(=O)Nc1nc2cc(C(N)=O)cnc2n1CCCCNC(=O)OCc1ccccc1` [Compound G, benzyl N-[4-[6-carbamoyl-2-[(2-ethyl-5-methyl-pyrazole-3-carbonyl)amino]imidazo[4,5-b]pyridin-3-yl]butyl]carbamate], for which the EC50 in test [1], in test [2], in test [3], in test [4], in test [5] and in test [6] (setting [7]) was over 500 nM each time.

As to `CCn1nc(C)cc1C(=O)Nc1nc2cc(C(N)=O)sc2n1C/C=C/CNC(=O)OC(C)(C)C` [Compound H, tert-butyl N-[(E)-4-[5-carbamoyl-2-[(2-ethyl-5-methyl-pyrazole-3-carbonyl)amino]thieno[2,3-d]imidazol-3-yl]but-2-enyl]carbamate], the concentration giving a half-maximal response (EC50) in test [1], in test [2], in test [3], in test [4], in test [5] and in test [6] (setting [7]) was over 500 nM in each case.

`CCn1nc(C)cc1C(=O)Nc1nc2cc(C(N)=O)cnc2n1C/C=C/Cn1c(NC(=O)c2cc(C)nn2CC)nc2cc(C(N)=O)cnc21` [Compound L, 3-[(E)-4-[6-carbamoyl-2-[(2-ethyl-5-methyl-pyrazole-3-carbonyl)amino]imidazo[4,5-b]pyridin-3-yl]but-2-enyl]-2-[(2-ethyl-5-methyl-pyrazole-3-carbonyl)amino]imidazo[4,5-b]pyridine-6-carboxamide]: the EC50 in test [1] was 1 to 500 nM; in test [2], 1 to 500 nM; in test [3] it was over 500 nM; in test [4], over 500 nM; in test [5] it was 1 to 500 nM; in test [6] (setting [7]), 1 to 500 nM.

With `CCn1nc(C)cc1C(=O)Nc1nc2cc(C(N)=O)ccc2n1C/C=C/Cn1c(NC(=O)c2cc(C)nn2CC)nc2cc(C(N)=O)sc21` [Compound M, 3-[(E)-4-[5-carbamoyl-2-[(2-ethyl-5-methyl-pyrazole-3-carbonyl)amino]benzimidazol-1-yl]but-2-enyl]-2-[(2-ethyl-5-methyl-pyrazole-3-carbonyl)amino]thieno[2,3-d]imidazole-5-carboxamide Tetrahydrochloride], the EC50 in test [1] was 1 to 500 nM; in test [2] it was 1 to 500 nM; in test [3], over 500 nM; in test [4], over 500 nM; in test [5] it was 1 to 500 nM; in test [6] (setting [7]) it was 1 to 500 nM.

For `CCn1nc(C)cc1C(=O)Nc1nc2cc(C(N)=O)sc2n1C/C=C/Cn1c(NC(=O)c2cc(C)nn2CC)nc2cc(C(N)=O)cc(OCCOC(F)F)c21` [Compound N, 3-[(E)-4-[5-carbamoyl-7-[2-(difluoromethoxy)ethoxy]-2-[(2-ethyl-5-methyl-pyrazole-3-carbonyl)amino]benzimidazol-1-yl]but-2-enyl]-2-[(2-ethyl-5-methyl-pyrazole-3-carbonyl)amino]thieno[2,3-d]imidazole-5-carboxamide Tetrahydrochloride], the EC50 was 1 to 500 nM in test [1]; under 1 nM in test [2]; over 500 nM in test [3]; over 500 nM in test [4]; under 1 nM in test [5]; 1 to 500 nM in test [6] (setting [7]).

Consider `CCn1nc(C)cc1C(=O)Nc1nc2cc(C(N)=O)sc2n1C/C=C/Cn1c(NC(=O)c2cc(C)nn2CC)nc2cc(C(N)=O)cc(OCCCN(C)C)c21` [Compound O, 3-[(E)-4-[5-carbamoyl-7-[3-(dimethylamino)propoxy]-2-[(2-ethyl-5-methyl-pyrazole-3-carbonyl)amino]benzimidazol-1-yl]but-2-enyl]-2-[(2-ethyl-5-methyl-pyrazole-3-carbonyl)amino]thieno[2,3-d]imidazole-5-carboxamide], for which the EC50 in test [2] and in test [5] was 1 to 500 nM throughout.

With `CCn1nc(C)cc1C(=O)Nc1nc2cc(C(N)=O)cnc2n1C/C=C/Cn1c(NC(=O)c2cc(C)nn2CC)nc2cc(C(N)=O)cc(OCCCN(C)C)c21` [Compound P, 3-[(E)-4-[5-carbamoyl-7-[3-(dimethylamino)propoxy]-2-[(2-ethyl-5-methyl-pyrazole-3-carbonyl)amino]benzimidazol-1-yl]but-2-enyl]-2-[(2-ethyl-5-methyl-pyrazole-3-carbonyl)amino]imidazo[4,5-b]pyridine-6-carboxamide], the EC50 in test [1], in test [2], in test [3], in test [4], in test [5] and in test [6] (setting [7]) was 1 to 500 nM each time.

For the compound `CCn1nc(C)cc1C(=O)Nc1nc2cc(C(N)=O)sc2n1C/C=C/Cn1c(NC(=O)c2cc(C)nn2CC)nc2cc(C(N)=O)cc(OCCCNC)c21` [Compound Q, 3-[(E)-4-[5-carbamoyl-2-[(2-ethyl-5-methyl-pyrazole-3-carbonyl)amino]-7-[3-(methylamino)propoxy]benzimidazol-1-yl]but-2-enyl]-2-[(2-ethyl-5-methyl-pyrazole-3-carbonyl)amino]thieno[2,3-d]imidazole-5-carboxamide], the EC50 in test [2] and in test [5] was 1 to 500 nM throughout.

As for `CCn1nc(C)cc1C(=O)Nc1nc2cc(C(N)=O)cnc2n1C/C=C/Cn1c(NC(=O)c2cc(C)nn2CC)nc2cc(C(N)=O)cc(OCCCO)c21` [Compound R], the EC50 in test [1], in test [2], in test [3], in test [4], in test [5] and in test [6] was 1 to 500 nM in each case.

As for `CCn1nc(C)cc1C(=O)Nc1nc2cc(C(N)=O)cnc2n1C/C=C/Cn1c(NC(=O)c2cc(C)nn2CC)nc2cc(C(N)=O)cc(OCCCNC)c21` [Compound S, 3-[(E)-4-[5-carbamoyl-2-[(2-ethyl-5-methyl-pyrazole-3-carbonyl)amino]-7-[3-(methylamino)propoxy]benzimidazol-1-yl]but-2-enyl]-2-[(2-ethyl-5-methyl-pyrazole-3-carbonyl)amino]imidazo[4,5-b]pyridine-6-carboxamide], the EC50 in test [1], in test [2], in test [3], in test [4], in test [5] and in test [6] (setting [7]) was 1 to 500 nM throughout.
